Data: PubChem BioAssay (NCI)
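Briefly, cells in 96-well plates were exposed to five compound concentrations for 48 h, and endpoints were estimated by linear interpolation. GI50: concentration for 50% inhibition of growth. At the TGI there is no net growth.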

How the values were obtained:
Experiment in all cases: NCI-60 cell line screen, 48 h
CAKI-1 renal = tested on: CAKI-1 renal
HS 578T breast = tested on: HS 578T breast
IGROV1 ovarian = tested on: IGROV1 ovarian
M14 melanoma = tested on: M14 melanoma
NCI-H226 lung = tested on: NCI-H226 lung
OVCAR-4 ovarian = tested on: OVCAR-4 ovarian
OVCAR-8 ovarian = tested on: OVCAR-8 ovarian
SNB-19 CNS = tested on: SNB-19 CNS
UACC-257 melanoma = tested on: UACC-257 melanoma
HCC-2998 colon = tested on: HCC-2998 colon

Compound | GI50 (CAKI-1 renal) | TGI (CAKI-1 renal) | GI50 (HS 578T breast) | TGI (HS 578T breast) | GI50 (IGROV1 ovarian) | TGI (IGROV1 ovarian) | GI50 (M14 melanoma) | TGI (M14 melanoma) | GI50 (NCI-H226 lung) | TGI (NCI-H226 lung) | GI50 (OVCAR-4 ovarian) | TGI (OVCAR-4 ovarian) | GI50 (OVCAR-8 ovarian) | TGI (OVCAR-8 ovarian) | GI50 (SNB-19 CNS) | TGI (SNB-19 CNS) | GI50 (UACC-257 melanoma) | TGI (UACC-257 melanoma) | TGI (HCC-2998 colon)
COc1ccc(Nc2cnc3cc(N)cc(N)c3n2)cc1 | 23 µM | 64.9 µM | 21.9 µM | 63.3 µM | 17.6 µM | 37.7 µM | 14.5 µM | 28 µM | 17.2 µM | 45.8 µM | 21.4 µM | 48.5 µM | 14.1 µM | 29.4 µM | 32.8 µM | > 100 µM | 19.4 µM | 45.9 µM | 
OC(c1ccccc1Br)(c1ccccc1Br)C(F)(F)F |  | > 100 µM |  |  |  | > 100 µM |  | > 100 µM |  | 26.5 µM |  | > 100 µM |  | > 100 µM |  |  |  | 72.9 µM | 6.58 µM
COc1ccc2nc(NC(=O)C(=O)CC(=O)c3ccc([N+](=O)[O-])cc3)sc2c1 |  | > 100 µM |  |  |  | > 100 µM |  | > 100 µM |  | > 100 µM |  | > 100 µM |  | > 100 µM |  | > 100 µM |  | > 100 µM | > 100 µM
Cc1ccc(S(=O)(=O)NCCCCC(N)C(=O)O)cc1 (configuration not stated) |  | > 100 µM |  | > 100 µM |  | > 100 µM |  | > 100 µM |  | > 100 µM |  | > 100 µM |  | > 100 µM |  | > 100 µM |  | > 100 µM | 
CC(=O)Nc1ccc(C2CC(c3ccc([N+](=O)[O-])cc3)=Nc3ccccc3S2=O)cc1 (configuration not stated) |  |  |  |  |  | 34.7 µM |  | > 100 µM |  | 64.5 µM |  | 39.8 µM |  | 89.2 µM |  | > 100 µM |  | 95.3 µM | 30.5 µM
O=C1C2C3C=CC(C2C(=O)N1CO)C1C2C(=O)N(CO)C(=O)C2C31 (configuration not stated) |  | > 100 µM |  |  |  | > 100 µM |  | > 100 µM |  | > 100 µM |  | > 64.7 µM |  | > 75.8 µM |  | > 100 µM |  | > 100 µM | > 100 µM
C[C@H](C(=O)O)C(=O)NC(=O)N(Cc1ccccc1)N=O |  | > 100 µM |  |  |  | > 100 µM |  | > 100 µM |  |  |  | > 100 µM |  | > 100 µM |  | > 100 µM |  | > 100 µM | > 100 µM
CC(=O)Oc1c(C(=O)[O-])cc(C(C)C)cc1C(C)C.CC(=O)Oc1c(C(=O)[O-])cc(C(C)C)cc1C(C)C.CC(=O)Oc1c(C(=O)[O-])cc(C(C)C)cc1C(C)C.CC(=O)Oc1c(C(=O)[O-])cc(C(C)C)cc1C(C)C.[Cu+2].[Cu+2] | > 100 µM | > 100 µM | 50.5 µM | > 100 µM | 30.4 µM | > 100 µM | 49.3 µM | > 100 µM | 69.3 µM | > 100 µM | 42.9 µM | 97.1 µM | 30.6 µM | > 100 µM | 26.3 µM | 61.7 µM | 18.2 µM | 36.9 µM | 
O=C(CCCC(=O)Nc1ccc(Cl)cc1Cl)CC(=O)c1ccc2ccccc2c1 |  | > 100 µM |  |  |  | > 100 µM |  | > 100 µM |  | > 100 µM |  | > 100 µM |  | > 100 µM |  | > 100 µM |  | > 100 µM | > 100 µM
COc1ccc2c(C(=O)O)cc3ccccc3c2c1OC |  |  |  |  |  |  |  | 30.7 µM |  | 71.9 µM |  |  |  | 56.8 µM |  | > 100 µM |  | 35.9 µM | 46.8 µM
